{
  "source": "patent US20100069421A1",
  "about": "“COMPOSITIONS AND METHODS FOR THE TREATMENT OF RADIATION PROCTOSIGMOITIS” (priority 2006, published 2010)",
  "system": "patient experiencing radiation induced enteritis",
  "experiment": "Administration of rifaximin to a patient experiencing radiation induced enteritis",
  "assay_type": "in vivo, human",
  "conditions": "no data shown",
  "description": "The recognition of bacteria as primarily causative of the symptomatology seen in cancer patients represents a paradigm shift in that bacterial colonization, overgrowth, and/or invasion are a potentially curable or controllable source of a patient's discomfort. Furthermore, this represents a paradigm shift in that prior measures commonly used in the amelioration of such problems were supportive in nature, addressing the symptoms of these conditions and not the root cause itself. This permits greater targeting of the symptoms' cause and results in improved efficacy of symptom amelioration, while at the same time causing fewer adverse effects, as would be commonly seen with supportive measures such as traditional anti-diarrheals. […] Furthermore, it enables the physician to treat the cause of the symptoms in such a way that suboptimally effective supportive measures can not. This is seen in terms of greater targeting of therapy, fewer drug interactions, and improved tolerance to therapy. Particular benefit is seen with this therapy because it may prevent or ameliorate symptoms that would otherwise necessitate a break in treatment to allow the patient to recover from their symptoms. […]",
  "data": [
    {"smiles": "CO[C@H]1/C=C/O[C@@]2(C)Oc3c(C)c(O)c4c(O)c(c5c(nc6cc(C)ccn65)c4c3C2=O)NC(=O)/C(C)=C\\C=C\\[C@H](C)[C@H](O)[C@@H](C)[C@@H](O)[C@@H](C)[C@H](OC(C)=O)[C@@H]1C", "note": "[Rifaximin]", "values": [
      {"measurement": "symptoms of radiation induced enteritis", "value": "reduces symptoms of the condition"}
    ]}
  ]
}
